The values below come from patent US9765101B2, “Organo-arsenoxide compounds and use thereof” (NewSouth Innovations Pty Limited, priority 2006, dated 2017).

Common to all, as to type: cell-based, bovine
The subject of data set [1] is BAE cells. Kind of data set: BAE cell proliferation assay (MTT, 72 h). Here is the method:
BAE cells were from Cell Applications, San Diego, Calif. and BxPC-3, HT1080, LLC, PANC-1, MCF-7, HCT116 and K562 cells were from ATCC, Bethesda, Md. NB4 and MDCK2 cells were from Shane Supple (Kanematsu Laboratories, Royal Prince Alfred Hospital, Sydney, Australia) and P. Borst (The Netherlands Cancer Institute, Amsterdam, The Netherlands). BAE, HT1080, Panc-1, MCF-7, HCT116, MDCK2 and LLC cells were cultured in DMEM. NB4, K562 and BxPC-3 cells were cultured in RPMI medium. The cells were supplemented with 10% foetal calf serum (FBS), 2 mM L-glutamine, and 1 U·mL-1 penicillin/streptomycin. Cell culture plasticware was from Techno Plastic Products (Trasadingen, Switzerland). All other cell culture reagents were from Gibco (Gaithersburg, Md.).
Adherent cells were allowed to adhere overnight.

The target of data set [2] is T1, multidrug resistance associated protein 1 (MRP-1) (Bos taurus, UniProt Q8HXQ5).
T1 construct: host or cells: BAE (bovine aortic endothelial) cells
T1 sequence (Q8HXQ5 whole entry): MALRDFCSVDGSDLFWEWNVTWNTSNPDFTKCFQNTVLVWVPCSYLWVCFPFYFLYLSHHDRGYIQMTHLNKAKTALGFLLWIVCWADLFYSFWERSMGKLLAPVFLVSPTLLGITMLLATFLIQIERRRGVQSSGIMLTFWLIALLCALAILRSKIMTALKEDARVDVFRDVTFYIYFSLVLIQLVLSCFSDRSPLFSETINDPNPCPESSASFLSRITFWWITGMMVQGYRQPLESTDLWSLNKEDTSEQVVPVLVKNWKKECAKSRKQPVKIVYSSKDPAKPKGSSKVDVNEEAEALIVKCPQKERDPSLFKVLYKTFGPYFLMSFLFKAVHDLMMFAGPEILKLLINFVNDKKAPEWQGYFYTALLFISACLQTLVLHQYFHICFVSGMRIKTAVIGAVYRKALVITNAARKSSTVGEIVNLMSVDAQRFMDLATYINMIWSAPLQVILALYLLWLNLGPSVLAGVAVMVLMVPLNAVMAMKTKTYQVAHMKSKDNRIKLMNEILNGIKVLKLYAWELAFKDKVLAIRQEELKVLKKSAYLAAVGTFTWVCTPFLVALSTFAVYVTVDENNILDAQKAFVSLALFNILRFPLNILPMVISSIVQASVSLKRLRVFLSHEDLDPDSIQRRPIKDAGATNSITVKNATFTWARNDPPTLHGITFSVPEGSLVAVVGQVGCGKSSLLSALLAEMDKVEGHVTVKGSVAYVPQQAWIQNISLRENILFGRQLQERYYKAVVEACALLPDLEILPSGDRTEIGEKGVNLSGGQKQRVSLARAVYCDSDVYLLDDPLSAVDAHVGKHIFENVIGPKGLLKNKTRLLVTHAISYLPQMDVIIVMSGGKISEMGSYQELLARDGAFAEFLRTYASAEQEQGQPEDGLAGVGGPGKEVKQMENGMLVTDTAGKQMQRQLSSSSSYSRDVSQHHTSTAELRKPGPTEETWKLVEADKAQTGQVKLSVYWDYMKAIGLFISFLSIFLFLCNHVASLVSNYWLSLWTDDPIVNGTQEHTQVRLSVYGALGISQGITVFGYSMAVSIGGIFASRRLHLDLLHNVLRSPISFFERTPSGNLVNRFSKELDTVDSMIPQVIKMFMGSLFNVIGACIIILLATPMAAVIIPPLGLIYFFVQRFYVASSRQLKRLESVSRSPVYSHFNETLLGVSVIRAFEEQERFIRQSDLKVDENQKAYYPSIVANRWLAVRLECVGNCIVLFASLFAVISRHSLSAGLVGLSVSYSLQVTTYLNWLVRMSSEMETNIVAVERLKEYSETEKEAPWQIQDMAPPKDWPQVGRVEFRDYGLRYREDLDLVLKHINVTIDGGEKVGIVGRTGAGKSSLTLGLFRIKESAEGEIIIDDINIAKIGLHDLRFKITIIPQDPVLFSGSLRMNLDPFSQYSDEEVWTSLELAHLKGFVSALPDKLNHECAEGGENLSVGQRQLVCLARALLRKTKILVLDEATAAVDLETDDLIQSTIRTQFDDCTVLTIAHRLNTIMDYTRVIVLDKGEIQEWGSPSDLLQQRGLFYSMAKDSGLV
Kind of data set: Accumulation in BAE cells with MRP-1 inhibitor 4H10. On the procedure:
FIG. 16. […] A. CAO accumulates in cells at a much faster rate than GSAO. BAE cells were incubated with 50 μM GSAO or CAO for 4 h. Cellular arsenic levels were determined by ICPMS. The rates of accumulation are GSAO and CAO are 0.03 and 0.20 nmol As atoms per 10^6 cells, respectively. Data points are the mean±SD of three determinations. The results are representative of two experiments. […] BAE cells pretreated for 30 min with 10 μM of the MRP-1 inhibitor 4H10 were incubated with 50 μM GSAO or CAO for 2 h. Cellular arsenic levels were determined by ICPMS. Data points are the mean±SD of three determinations. The results are representative of two experiments. C. GSAO and CAO IC50 values for proliferation arrest of endothelial cells. BAE cells were incubated with 0.8-100 μM GSAO or CAO for 24, 48 or 72 h. Cell viability was determined using MTT. Results are expressed as percentage of control. Values are mean±SD of triplicate determinations. Results are representative of three experiments.
Depending on the type of experiments, 1.6×10^6 or 7.5×10^5 BAE cells were seeded in petri dishes or 6-well-plates, respectively, and allowed to attach overnight. The medium was replaced and the cells were incubated for 30 min in the absence or presence of acivicin or 4H10. The cells were then incubated with 50 or 100 μM GSAO or CAO for 30 mM for 4 h. […]

Data set [3] deals with BAE cells. Kind of data set: Accumulation of GSAO and CAO in BAE cells (ICPMS). Here is the method:
Depending on the type of experiments, 1.6×10^6 or 7.5×10^5 BAE cells were seeded in petri dishes or 6-well-plates, respectively, and allowed to attach overnight. The medium was replaced and the cells were incubated for 30 min in the absence or presence of acivicin or 4H10. The cells were then incubated with 50 or 100 μM GSAO or CAO […] for 4 h. Cells were then washed twice with ice-cold PBS and lysed with 1 ml of 70% w/w nitric acid.

Data set [4] relates to BAE cells. Kind of data set: BAE cell proliferation assay, 24, 48 or 72 h (Example 2). On the procedure: Bovine aortic endothelial (BAE) cells were from Cell Application (San Diego, Calif.). BAE cells were cultured in DMEM supplemented with 10% fetal calf serum, 2 mM L-glutamine, and 5 units per mL penicillin and streptomycin (Gibco, Gaithersburg, Md.). Cells were cultured at 37° C. in a 5% CO2, 95% air atmosphere. BAE cells were seeded in 96-well plates (5,000 cells per well) in 0.2 ml of culture medium. After 24 h of growth, the medium was replaced with fresh culture medium supplemented with GSAO, CAO or 4H10 and cells were cultured for an additional 24, 48 or 72 h. Viable attached cells were determined using the tetrazolium salt MTT (Sigma, St. Louis, Mo.) according to the manufacturer's protocol. Results were expressed as percentage of untreated controls.

Regarding `CC(C)(SCC(=O)Nc1ccc([As](=O)(O)O)cc1)[C@@H](N)C(=O)O` [(S)-Penicillamine-arsenonic acid, reference compound], the “effect on proliferation of BAE cells” value in the data set on BAE cells [1] was “no effect on proliferation”.

On to `NC(CSCC(=O)Nc1ccc([As](O)O)cc1)C(=O)O` (stereo not drawn) [CAO, 4-(N—(S-cysteinylacetyl)amino)-phenylarsinous acid], for which, in data set [2], the “export by multidrug resistance associated protein 1” value was “exported from cells by the multidrug resistance associated protein 1”. For the same molecule, the “increase of cellular accumulation when MRP-1 was inhibited” value in data set [2] (10 μM 4H10 30 min, then 50 μM compound 2 h) is listed as ~3 fold. In addition, the “rate of accumulation in endothelial cells, fold faster than GSAO” value in the data set with BAE cells [3] is listed as ~8 fold. In addition, the rate of accumulation in the data set with BAE cells [3] (50 μM, 4 h) is on record as 0.20 nmol As atoms per 10^6 cells. For the same molecule, the “anti-proliferative activity compared to GSAO” value with BAE cells [4] was “greater anti-proliferative activity than GSAO”.
